Measurements from ChEMBL document CHEMBL1201862, “PubChem BioAssay data set” (2004).
Activity calls are given as the source filed them.

What was measured:
[1] = target: T1, Zinc finger protein mex-5 (Caenorhabditis elegans, UniProt Q9XUB2); assay: potency of MEX-5 RNA-binding blockers – biochemical, C. elegans, fluorescence polarization, dose response (AID 1960)
T1 sequence (Q9XUB2 whole entry): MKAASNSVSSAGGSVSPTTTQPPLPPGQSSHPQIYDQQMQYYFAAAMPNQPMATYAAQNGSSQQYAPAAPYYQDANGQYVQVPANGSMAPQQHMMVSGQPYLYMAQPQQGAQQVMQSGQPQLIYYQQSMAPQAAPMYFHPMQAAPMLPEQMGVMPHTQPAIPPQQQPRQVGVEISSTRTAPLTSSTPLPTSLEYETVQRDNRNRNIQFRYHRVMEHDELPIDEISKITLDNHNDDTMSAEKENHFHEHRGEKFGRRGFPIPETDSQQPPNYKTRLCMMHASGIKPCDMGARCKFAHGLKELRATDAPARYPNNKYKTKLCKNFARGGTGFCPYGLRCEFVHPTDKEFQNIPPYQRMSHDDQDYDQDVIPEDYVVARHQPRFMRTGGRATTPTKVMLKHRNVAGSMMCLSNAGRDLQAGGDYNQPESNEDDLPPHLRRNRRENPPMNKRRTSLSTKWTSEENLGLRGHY

[2] = target: T2, RNA-binding protein pos-1 (Caenorhabditis elegans, UniProt G5EF15); assay: disruptors of C. elegans POS-1 RNA interaction – biochemical, fluorescence polarization, dose response (AID 1964);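 further: purified POS-1 fused to maltose binding protein made in E. coli; potency of compounds blocking POS-1 binding to fluorescent RNA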
T2 sequence (G5EF15 whole entry): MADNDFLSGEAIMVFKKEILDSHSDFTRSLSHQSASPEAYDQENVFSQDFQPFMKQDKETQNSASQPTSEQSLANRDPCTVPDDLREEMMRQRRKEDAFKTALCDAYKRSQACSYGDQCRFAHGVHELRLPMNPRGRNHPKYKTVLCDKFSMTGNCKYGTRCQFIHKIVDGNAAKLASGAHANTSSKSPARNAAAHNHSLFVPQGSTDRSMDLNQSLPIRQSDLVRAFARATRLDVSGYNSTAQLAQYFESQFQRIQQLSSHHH

[3] = target: T3, Tyrosyl-DNA phosphodiesterase 2 (Homo sapiens, UniProt O95551); assay: potency against TDP2 phosphodiesterase activity – biochemical, epi absorbance, IC50, dose response (AID 743297)
T3 sequence (O95551 whole entry): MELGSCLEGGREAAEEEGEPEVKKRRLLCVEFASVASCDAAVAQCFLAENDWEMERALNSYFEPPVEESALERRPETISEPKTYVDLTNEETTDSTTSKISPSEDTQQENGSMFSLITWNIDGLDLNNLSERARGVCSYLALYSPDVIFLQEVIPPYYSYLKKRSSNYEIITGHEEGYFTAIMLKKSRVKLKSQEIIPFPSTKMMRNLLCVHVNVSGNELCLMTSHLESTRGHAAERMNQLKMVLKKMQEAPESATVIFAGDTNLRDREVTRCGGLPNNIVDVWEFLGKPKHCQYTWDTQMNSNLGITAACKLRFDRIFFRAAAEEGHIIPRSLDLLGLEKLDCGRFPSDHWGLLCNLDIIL

Paired box protein Pax-8 = Paired box protein Pax-8 (Homo sapiens, UniProt Q06710); assay: PAX8 transcriptional activity inhibition in RMG-I – RMG-I cells, luciferase, cherry-pick, dose response (AID 687027); type: functional, cell-based;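 further: luciferase reporter driven by Pax8 target thyroperoxidase promoter measured by SteadyGlo luminescence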
Sequence of Paired box protein Pax-8 (Q06710 whole entry): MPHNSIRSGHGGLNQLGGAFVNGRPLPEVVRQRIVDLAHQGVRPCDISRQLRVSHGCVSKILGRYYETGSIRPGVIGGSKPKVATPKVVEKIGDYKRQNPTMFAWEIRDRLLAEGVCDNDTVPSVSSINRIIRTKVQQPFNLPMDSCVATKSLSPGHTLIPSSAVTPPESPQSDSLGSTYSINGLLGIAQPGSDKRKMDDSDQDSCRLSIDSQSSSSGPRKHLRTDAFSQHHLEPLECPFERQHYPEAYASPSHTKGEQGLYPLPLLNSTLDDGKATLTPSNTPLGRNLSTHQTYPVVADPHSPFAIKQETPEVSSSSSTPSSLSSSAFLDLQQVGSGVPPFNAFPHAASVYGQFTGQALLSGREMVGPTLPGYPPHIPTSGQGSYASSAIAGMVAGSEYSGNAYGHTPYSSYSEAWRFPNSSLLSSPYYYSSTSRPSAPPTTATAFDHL

Streptococcus = assay: GAS UMAA2166 growth inhibition – luminescence, BacTiterGlo, counter-screen for streptokinase expression inhibitor project, dose response (AID 1915); type: functional, organism-based;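 further: potency for reduction of bacterial viability or growth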
[4] = system: Streptococcus sp. 'group A'; assay: Streptococcus pyogenes SK(-)GAS viability under kanamycin – luminescence, BacTiterGlo, confirmation, counter-screen for streptokinase expression inhibitor project, dose response (AID 1900); type: functional, organism-based
[5] = fluconazole-exposed Candida albicans growth modulators – fluorescence, retest, confirmation (AID 2467); type: functional, cell-based
[6] = NIH-3T3 fibroblast cytotoxicity, dose response, cytotoxicity control, cell-based, fluorescence, Alamar Blue, secondary assay (AID 2327); type: functional;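 further: NIH-3T3 mouse fibroblasts cultured with fluconazole at 8 µg/mL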
[7] = target: Endoribonuclease toxin MazF (Escherichia coli K-12, UniProt P0AE70); assay: substrate-only fluorescence increase artefacts – biochemical, single-stranded RNase substrate, counter-screen for MazEF activator project, dose response (AID 588502); type: functional
Sequence of Endoribonuclease toxin MazF (P0AE70 whole entry): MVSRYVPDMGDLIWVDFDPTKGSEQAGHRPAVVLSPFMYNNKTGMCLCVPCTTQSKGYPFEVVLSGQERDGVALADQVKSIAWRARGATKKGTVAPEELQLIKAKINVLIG

[8] = target: Heat shock protein HSP 90-alpha (Homo sapiens, UniProt P07900); type: functional, organism-based
[9] = target: Transitional endoplasmic reticulum ATPase (Homo sapiens, UniProt P55072); assay: p97 ATPase inhibitors, dose response, biochemical (AID 1534)
Sequence of Transitional endoplasmic reticulum ATPase (Homo sapiens, UniProt P55072) (P55072 whole entry): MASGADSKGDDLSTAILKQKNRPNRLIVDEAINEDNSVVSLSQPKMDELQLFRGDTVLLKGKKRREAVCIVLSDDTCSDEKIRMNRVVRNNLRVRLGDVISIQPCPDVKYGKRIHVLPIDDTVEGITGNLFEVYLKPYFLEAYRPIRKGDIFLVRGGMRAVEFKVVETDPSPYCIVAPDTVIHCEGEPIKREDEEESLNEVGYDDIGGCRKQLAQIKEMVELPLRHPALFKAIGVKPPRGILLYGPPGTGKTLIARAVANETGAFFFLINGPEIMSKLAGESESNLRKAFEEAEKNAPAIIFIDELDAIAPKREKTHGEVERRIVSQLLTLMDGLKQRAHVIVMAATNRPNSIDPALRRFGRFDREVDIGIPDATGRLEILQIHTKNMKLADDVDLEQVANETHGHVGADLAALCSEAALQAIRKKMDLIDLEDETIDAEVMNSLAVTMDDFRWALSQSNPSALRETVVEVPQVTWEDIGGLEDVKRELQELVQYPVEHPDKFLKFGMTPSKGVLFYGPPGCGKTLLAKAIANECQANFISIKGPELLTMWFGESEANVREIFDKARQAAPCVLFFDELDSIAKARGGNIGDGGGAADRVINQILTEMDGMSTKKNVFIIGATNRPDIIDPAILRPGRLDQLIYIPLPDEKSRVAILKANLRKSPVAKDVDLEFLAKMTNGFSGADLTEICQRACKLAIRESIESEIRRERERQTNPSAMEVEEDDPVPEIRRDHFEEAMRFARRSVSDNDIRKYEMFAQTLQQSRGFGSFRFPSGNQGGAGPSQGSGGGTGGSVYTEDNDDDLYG

[10] = target: Fructose-bisphosphate aldolase (Mycobacterium tuberculosis, UniProt P9WQA3); assay: Fluorescence-based biochemical high throughput dose response assay for inhibitors of the fructose-bisphosphate aldolase (FBA) of M. tuberculosis.; type: functional
Sequence of Fructose-bisphosphate aldolase (P9WQA3 whole entry): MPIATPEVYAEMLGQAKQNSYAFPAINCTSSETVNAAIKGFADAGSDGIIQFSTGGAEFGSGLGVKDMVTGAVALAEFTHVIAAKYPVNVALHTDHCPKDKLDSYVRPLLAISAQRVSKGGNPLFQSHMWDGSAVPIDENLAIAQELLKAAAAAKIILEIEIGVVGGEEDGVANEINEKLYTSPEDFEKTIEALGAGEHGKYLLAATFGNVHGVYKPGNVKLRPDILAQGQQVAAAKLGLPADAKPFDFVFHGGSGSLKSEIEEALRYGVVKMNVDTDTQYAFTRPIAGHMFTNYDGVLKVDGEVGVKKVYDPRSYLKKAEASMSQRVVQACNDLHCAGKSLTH

[11] = target: Lysine-specific demethylase 4C (Homo sapiens, UniProt Q9H3R0); assay: inhibition of JMJD2C H3K9me3 demethylation – biochemical, DELFIA europium, cherry-picked samples, dose response (AID 488835); type: functional
Sequence of Lysine-specific demethylase 4C (Q9H3R0 whole entry): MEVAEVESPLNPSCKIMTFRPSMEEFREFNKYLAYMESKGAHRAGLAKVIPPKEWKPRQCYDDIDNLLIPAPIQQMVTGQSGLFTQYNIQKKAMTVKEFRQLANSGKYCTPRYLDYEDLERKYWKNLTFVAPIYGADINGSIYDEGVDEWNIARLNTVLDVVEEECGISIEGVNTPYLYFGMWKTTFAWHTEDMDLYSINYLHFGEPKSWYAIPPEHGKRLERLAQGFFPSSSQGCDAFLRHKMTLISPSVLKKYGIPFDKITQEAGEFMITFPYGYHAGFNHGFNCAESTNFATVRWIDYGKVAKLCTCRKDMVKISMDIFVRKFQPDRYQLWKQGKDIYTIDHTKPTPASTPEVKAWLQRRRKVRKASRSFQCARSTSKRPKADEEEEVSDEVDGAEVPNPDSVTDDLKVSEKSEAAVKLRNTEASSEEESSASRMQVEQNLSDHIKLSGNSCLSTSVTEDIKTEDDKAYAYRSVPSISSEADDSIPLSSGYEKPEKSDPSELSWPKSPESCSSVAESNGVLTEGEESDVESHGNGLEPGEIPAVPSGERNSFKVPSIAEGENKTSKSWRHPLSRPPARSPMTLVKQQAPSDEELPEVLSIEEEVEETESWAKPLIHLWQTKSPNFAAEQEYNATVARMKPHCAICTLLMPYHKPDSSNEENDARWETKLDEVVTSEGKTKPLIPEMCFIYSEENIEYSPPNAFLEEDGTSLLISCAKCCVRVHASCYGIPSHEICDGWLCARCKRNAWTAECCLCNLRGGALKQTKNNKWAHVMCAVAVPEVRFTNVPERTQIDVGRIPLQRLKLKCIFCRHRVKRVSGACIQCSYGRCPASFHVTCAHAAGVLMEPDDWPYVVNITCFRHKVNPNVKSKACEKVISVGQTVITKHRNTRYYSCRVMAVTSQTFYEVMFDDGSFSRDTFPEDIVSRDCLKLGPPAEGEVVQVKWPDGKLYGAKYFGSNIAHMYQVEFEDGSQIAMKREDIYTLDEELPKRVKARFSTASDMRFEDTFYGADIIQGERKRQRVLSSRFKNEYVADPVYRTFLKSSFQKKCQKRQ

[12] = target: Transitional endoplasmic reticulum ATPase (Homo sapiens, UniProt P55072, C522A); assay: C522A mutant p97 ATPase inhibitors, dose response, counter-screen for p97 inhibitor project, biochemical, luminescence (AID 1544)
Sequence of Transitional endoplasmic reticulum ATPase (Homo sapiens, UniProt P55072, C522A) (P55072 2-806 C522A limits assumed): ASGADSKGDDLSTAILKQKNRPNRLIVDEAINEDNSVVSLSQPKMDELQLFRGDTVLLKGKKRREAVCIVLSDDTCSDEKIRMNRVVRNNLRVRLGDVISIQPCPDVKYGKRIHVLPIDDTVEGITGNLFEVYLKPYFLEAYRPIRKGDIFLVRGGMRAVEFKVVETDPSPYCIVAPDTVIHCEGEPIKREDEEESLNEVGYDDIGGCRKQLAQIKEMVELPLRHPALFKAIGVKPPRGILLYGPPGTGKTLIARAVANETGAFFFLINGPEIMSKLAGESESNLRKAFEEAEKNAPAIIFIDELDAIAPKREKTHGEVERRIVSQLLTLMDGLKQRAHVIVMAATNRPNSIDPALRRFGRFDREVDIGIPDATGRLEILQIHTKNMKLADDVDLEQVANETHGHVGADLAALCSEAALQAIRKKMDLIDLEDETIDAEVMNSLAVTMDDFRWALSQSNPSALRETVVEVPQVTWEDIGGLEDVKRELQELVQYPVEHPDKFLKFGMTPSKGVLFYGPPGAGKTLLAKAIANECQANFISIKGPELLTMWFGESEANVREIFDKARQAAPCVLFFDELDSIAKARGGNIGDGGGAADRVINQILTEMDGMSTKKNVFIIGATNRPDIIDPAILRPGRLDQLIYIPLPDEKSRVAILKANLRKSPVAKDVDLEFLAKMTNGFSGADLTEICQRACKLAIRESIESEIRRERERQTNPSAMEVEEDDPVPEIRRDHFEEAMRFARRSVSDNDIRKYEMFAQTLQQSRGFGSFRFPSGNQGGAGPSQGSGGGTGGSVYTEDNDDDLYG

[13] = target: Induced myeloid leukemia cell differentiation protein Mcl-1 (Homo sapiens, UniProt Q07820); type: functional
Sequence of Induced myeloid leukemia cell differentiation protein Mcl-1 (Q07820 whole entry): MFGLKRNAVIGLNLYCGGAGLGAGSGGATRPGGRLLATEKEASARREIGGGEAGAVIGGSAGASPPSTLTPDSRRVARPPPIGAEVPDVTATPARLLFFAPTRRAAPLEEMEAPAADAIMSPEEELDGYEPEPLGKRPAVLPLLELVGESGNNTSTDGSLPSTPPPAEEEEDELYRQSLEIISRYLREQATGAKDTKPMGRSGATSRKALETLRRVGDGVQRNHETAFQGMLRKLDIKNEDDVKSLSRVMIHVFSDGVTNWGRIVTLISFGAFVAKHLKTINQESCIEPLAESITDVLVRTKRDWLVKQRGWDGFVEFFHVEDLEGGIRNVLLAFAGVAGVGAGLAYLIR

[14] = rise of 4N DNA cells, HeLa – IC50, dose response (AID 1117351); type: functional, cell-based
[15] = target: T4, Neuropeptide Y receptor type 1 (Homo sapiens, UniProt P25929); assay: Fluorescence-based counterscreen for agonists of NPY-Y2: cell-based high-throughput dose response assay for agonists of NPY-Y1.; type: functional
T4 sequence (P25929 whole entry): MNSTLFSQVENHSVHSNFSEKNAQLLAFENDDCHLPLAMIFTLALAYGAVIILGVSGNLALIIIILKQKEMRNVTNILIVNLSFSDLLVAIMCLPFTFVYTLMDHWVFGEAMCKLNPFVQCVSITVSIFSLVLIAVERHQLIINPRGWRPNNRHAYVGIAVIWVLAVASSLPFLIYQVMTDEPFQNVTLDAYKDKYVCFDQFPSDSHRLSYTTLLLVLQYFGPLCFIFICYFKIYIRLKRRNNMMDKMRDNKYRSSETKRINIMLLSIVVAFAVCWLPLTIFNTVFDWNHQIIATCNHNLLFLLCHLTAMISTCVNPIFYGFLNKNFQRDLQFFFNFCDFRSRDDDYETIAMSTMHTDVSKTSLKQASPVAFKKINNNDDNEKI

Row | Compound | EC50 [1] | EC50 [2] | IC50 [3] | AC50 (Paired box protein Pax-8) | EC50 (Streptococcus) | EC50 [4] | EC50 [5] | EC50 [6] | AC50 [8] | IC50 [9] | IC50 [12] | other results
1 | CCc1ccc(S(=O)(=O)Nc2cc(SCC(=O)O)c(O)c3ccccc23)cc1 | 11.5 µM (active) | 35.5 µM (active) | 85.9 µM (inactive) |  |  |  |  |  |  |  |  | 
2 | CCCC(=O)NC(c1ccc(C(C)C)cc1)c1ccc2cccnc2c1O (stereo not drawn) |  |  |  | 1.21 µM (active) | 6.95 µM (active) | 2.55 µM (active) | 0.621 µM (active) | 22.1 µM (inconclusive) |  |  |  | 
3 | O=[N+]([O-])c1ccc(Sc2cccc[n+]2[O-])c2nonc12 |  |  |  |  |  |  |  |  | 3.91 µM (active) |  |  | EC50 [7]: > 99 µM (inactive)
4 | N#Cc1c(N2CCCCC2)nc(N)c2c(N)nc(SCC(=O)O)cc12 |  |  |  |  |  |  |  |  |  | > 50 µM (not active) | > 50 µM (not active) | IC50 [10]: 8.03 µM (active); AC50 [11]: 5.4 µM (active)
5 | Oc1c(Cl)cc(Cl)c(Cl)c1Cc1c(O)c(Cl)cc(Cl)c1Cl [HEXACHLOROPHENE] | 19.1 µM (inconclusive) | 45.4 µM (inconclusive) |  | 3.3 µM (active) | 0.262 µM (active) | 0.244 µM (active) | > 38 µM (not active) | 16.2 µM (active) | 0.77 µM (active) | 5.49 µM (active) | > 50 µM (not active) | IC50 [13]: 14.8 µM (active); IC50 [14]: > 10 µM (inactive); EC50 [15]: 9.8 µM (active)
6 | CC1(C)Cc2ccccc2C2=NNC(=O)C2=N1 |  |  | 22.9 µM (inactive) |  |  |  |  |  |  |  |  | 
